Experiments:
RecG = target: T1, RecG (Thermotoga maritima, UniProt Q9WY48); experiment: Steady-state ATPase rate measurements with phosphate biosensor MDCC-PBP; format: biochemical; conditions: 10 µM ATP, varying inhibitor, 500 nM DNA junction (A40:B40), 20°C
T1 construct: made in house
T1 sequence (Q9WY48 1-780): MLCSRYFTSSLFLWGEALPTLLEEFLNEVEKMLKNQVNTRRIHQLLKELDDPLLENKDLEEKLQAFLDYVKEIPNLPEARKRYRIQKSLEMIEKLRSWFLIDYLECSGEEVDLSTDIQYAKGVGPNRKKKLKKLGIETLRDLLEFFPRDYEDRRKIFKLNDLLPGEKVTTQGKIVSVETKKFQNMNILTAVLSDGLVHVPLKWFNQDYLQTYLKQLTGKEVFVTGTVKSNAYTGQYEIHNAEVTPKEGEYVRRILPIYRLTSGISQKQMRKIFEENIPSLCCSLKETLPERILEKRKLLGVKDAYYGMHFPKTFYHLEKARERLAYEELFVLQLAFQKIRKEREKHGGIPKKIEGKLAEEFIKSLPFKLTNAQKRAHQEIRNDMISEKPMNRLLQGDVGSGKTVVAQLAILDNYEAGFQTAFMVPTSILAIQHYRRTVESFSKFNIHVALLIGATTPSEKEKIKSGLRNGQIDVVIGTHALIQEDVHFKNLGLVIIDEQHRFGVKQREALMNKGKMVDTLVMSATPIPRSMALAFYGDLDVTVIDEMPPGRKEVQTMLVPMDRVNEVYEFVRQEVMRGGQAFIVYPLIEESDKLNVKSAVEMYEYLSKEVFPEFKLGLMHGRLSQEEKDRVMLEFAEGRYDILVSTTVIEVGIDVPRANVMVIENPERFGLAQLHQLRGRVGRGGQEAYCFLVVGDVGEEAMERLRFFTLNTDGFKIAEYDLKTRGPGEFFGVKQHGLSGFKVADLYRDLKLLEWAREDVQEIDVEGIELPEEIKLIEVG
Description: Steady-state measurements were made to gain an overall assessment of the reaction and the affinities of various nucleotides before investigating the individual steps in the ATPase cycle. A two-strand DNA junction, which contains two 20-bp regions of complementary and non-complementary sequences (A40:B40 Figure 1 and Table S1), was used in all these measurements. This forms a Y-shape structure and RecG translocates one single-stranded arm, but then remains bound to the end of the junction still hydrolyzing ATP [10].
All reactions with RecG and DNA were done at 20°C in a buffer containing 50 mM Tris⋅acetate (pH 8.0), 30 mM potassium acetate, 3 mM magnesium acetate and 1 mM DTT. ATPase measurements using MDCC-PBP were taken in the presence of a Pi mop, as described above. Steady-state ATPase measurements were taken in a solution (60 µl) at 20°C, containing 10 nM RecG, 500 nM DNA junction (A40∶B40, see Table S1) and 10 µM MDCC-PBP with varying nucleotide concentrations as substrate or inhibitor [23].

RecG⋅DNA(A40:B40) [1] = target: T2, RecG⋅DNA(A40:B40) (Thermotoga maritima, UniProt Q9WY48); experiment: Pi release with excess ATP, global fit to ATPase cycle model; format: biochemical; conditions: fixed to be consistent with K i for ADP
T2 construct: made in house
T2 sequence (Q9WY48 1-780): T1 sequence (Q9WY48 1-780)
Method: The rate of Pi release was measured after mixing RecG⋅DNA with excess ATP, using the phosphate biosensor, in the stopped-flow apparatus (Figure 6A). […] Both phases are dependent on ATP concentration. The lag decreased, while the rate of the linear phase increased with greater concentrations of ATP. The lag is due to the steps prior to Pi release, namely ATP binding and cleavage. […] Such a burst phase would result from the relatively fast Pi release of the initial cycle before the Pi release of subsequent cycles was limited by slow ADP release.
(§1) Figure 6 ATPase cycle measurements with unmodified nucleotides. (A) Phosphate measurements at different ATP concentrations. 0.5 µM RecG, premixed with 2.5 µM DNA (A40:B40), was then mixed in the stopped-flow apparatus with ATP at the micromolar concentrations shown, in the presence of 10 µM MDCC-PBP. (B) Best fit time courses of the Pi release, based upon a model of the ATPase cycle, as described in the text. Curves were obtained by glogal fitting the curves at different concentrations, using Global kinetic Explorer. Note that in comparison, the experimental time courses show a small transient of Pi at times <100 ms. This is likely to be due to free Pi and this behavior, overlaying a lag, has been observed previously in multi-turnover measurements. (C) ADP Release kinetics. 10 µM RecG⋅DNA (A40∶B40) was pre-bound with 10 µM ADP before mixing with an excess of mantADP (20 µM): these concentrations are final in the mixing chamber. The increase in fluorescence was fitted to single exponential giving the dissociation rate constant of 11.4 (±2.2) s^−1. Rate constants were independent of mantADP concentration in the range of 20–80 µM.
A scheme of the ATPase cycle (Figure 2) was used to simulate the data to assess the individual rate constants. […] The simulated traces (Figure 6B) were obtained from a global fit to the experimental data. This was done by allowing only the rate constants that have maximum influence on the curve shapes to vary. Cleavage and Pi release were assumed to be irreversible. For the fit, Pi release was fixed at 100 s^–1, ADP release at 12.5 s^–1, as the fitting was relatively insensitive to changes in these constants. […] The resulting best fit gave rate constants for ATP binding as 0.65 (±0.02) µM^−1s^−1, dissociation of ATP as 10.0 (±0.6) s^−1, cleavage as 7.1 (±0.1) s^−1. The fit gave a cleavage rate constant similar to the value of k cat from the steady-state analysis (Table 1a). The rate constant for ADP release may be only slightly larger than that of cleavage step.
Data were fitted to theoretical equations using the stopped-flow software or Grafit. Kinetic simulations were performed using Berkeley Madonna (Version 8.3, University of California at Berkeley) and using Global Kinetic Explorer (Kintek). […]

RecG⋅DNA(A40:B40) [2] = target: T2, RecG⋅DNA(A40:B40); experiment: ADP dissociation kinetics by displacement with excess mantADP; format: binding
Method: as §1, with “10 µM RecG⋅DNA (A40∶B40) was pre-bound with 10 µM ADP before mixing with an excess of mantADP (20 µM): these concentrations are final in the mixing chamber.” left out, “Rate constants were independent of mantADP concentration in the range of 20–80 µM.” left out
A direct measurement of ADP dissociation kinetics was possible because of its relatively tight binding to RecG, which allowed quantitative formation of the ADP complex. […] The rate constant for dissociation was determined from a single exponential fit as 11.4 (±2) s^−1 (Figure 6C). This value fits well with the model whereby the dissociation rate constant is calculated as ≥12.5 s^−1.

Nc1ncnc2c1ncn2[C@@H]1O[C@H](COP(=O)(O)OP(=O)(O)O)[C@@H](O)[C@H]1O [ADP]
Ki (RecG): 7.3 µM | ADP binding rate constant in the model (RecG⋅DNA(A40:B40) [1]): 1.7 µM^−1s^–1 | ADP dissociation rate constant (RecG⋅DNA(A40:B40) [2]; 10 µM RecG⋅DNA pre-bound with 10 µM ADP, mixed with 20 µM mantADP): 11.4 (±2.2) s^−1 | estimated ADP association rate constant (RecG⋅DNA(A40:B40) [2]; from dissociation rate constant and K i): 1.6e+06 M⁻¹ s⁻¹

From article PMC3368886, “ATPase Cycle and DNA Unwinding Kinetics of RecG Helicase” (PLoS ONE, 2012)
